Results reported in patent US10912786B2, “Silyl monomers capable of multimerizing in an aqueous solution, and methods of using same” (Cornell University, priority 2011, dated 2021).

Target: T1, recombinant human tryptase, beta, from lung (Homo sapiens, UniProt P20231)
T1 construct: purchased Promega or Enzo Life Sciences G5631 or BML-SE418
Experiment: Evaluation of inhibition of tryptase activity (Boc-Gln-Ala-Arg-AMC fluorescence)
Format: biochemical
Settings: exemplary silyl monomers; 1 nM tryptase; read-out: IC50 range
Description: Stock solutions of recombinant human tryptase, beta, from lung (Promega: catalog number G5631, or Enzo Life Sciences: catalog number BML-SE418) were made at 30 μM, in solution with 50 μM heparin sulfate and 500 mM NaCl. Multimer tryptase inhibitor stock solutions were made at 50 mM in DMSO. Drug plates were made at 5× the final concentration in assay buffer (50 mM HEPES, 150 mM NaCl, 100 μM EDTA, pH 7.4, 0.02% Tween-20). A final concentration of 1 nM tryptase was used. When required, drugs were diluted in assay buffer immediately before use in 10-fold serial dilutions. […] The release of fluorescent AMC was immediately measured every 60 seconds over 30-60 minutes at an excitation wavelength of 367 nm, monitoring emission at 468 nm on a Spectramax M5 (Molecular Devices) microplate reader. The Softmax Pro (Molecular Devices) and Graphpad prism software were used to determine Vmax, and concentration-response curve IC50s, respectively. As indicated below, IC50 ranges are provided for various exemplary monomers.

T1 sequence (P20231 31-275): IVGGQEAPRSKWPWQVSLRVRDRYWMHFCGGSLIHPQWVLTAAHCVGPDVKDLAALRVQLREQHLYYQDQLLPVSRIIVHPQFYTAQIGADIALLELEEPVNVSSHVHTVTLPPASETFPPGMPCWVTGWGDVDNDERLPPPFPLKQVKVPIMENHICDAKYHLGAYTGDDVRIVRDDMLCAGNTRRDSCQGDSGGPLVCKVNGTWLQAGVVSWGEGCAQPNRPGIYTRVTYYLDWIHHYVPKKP

Row | Structure (SMILES) | IC50
1 | C[Si](C)(O)COc1ccc(C(=O)N2CCC(c3cccc(CN)c3)CC2)cc1 [Target T137, (4-(3-(aminomethyl)phenyl)piperidin-1-yl)(4-((hydroxydimethylsilyl)methoxy)-phenyl)methanone] | 0.1 to 1000 nM
2 | C[Si](C)(O)c1cccc(C(=O)N2CCC3(CC2)COc2ccc(CN)cc23)c1 [Target T129SPIRO] | 0.1 to 1000 nM
3 | C[Si](C)(O)c1cccc2cc(C(=O)N3CCC(c4cc(CN)ccc4F)CC3)ccc12 [Target T120F] | 0.1 to 1000 nM
4 | C[Si](C)(O)c1coc2ccc(C(=O)N3CCC(c4cccc(CN)c4)CC3)cc12 [Target T148] | 0.1 to 1000 nM
5 | C[Si](C)(O)c1ccc2c(C(=O)N3CCC(c4cccc(CN)c4)CC3)c[nH]c2c1 [Target T152] | 10000 to 65000 nM
6 | C[Si](C)(O)c1cccc2ccc(C(=O)N3CCC(c4cccc(CN)c4)CC3)cc12 [Target T52] | 0.1 to 1000 nM
7 | C[Si](C)(O)Cc1cccc(C(=O)N2CCC(c3cccc(CN)c3)CC2)c1 [Target T122] | 1000 to 10000 nM
8 | C[Si](C)(O[Si](C)(C)c1cccc(CC(=O)N2CCC(c3cccc(CN)c3)CC2)c1)c1cccc(CC(=O)N2CCC(c3cccc(CN)c3)CC2)c1 [Target T47] | 0.1 to 1000 nM
9 | C[Si](C)(O)c1ccc2cccc(C(=O)N3CCC(c4cccc(CN)c4)CC3)c2c1 [Target T11SILYL] | 0.1 to 1000 nM
10 | C[Si](C)(O[Si](C)(C)c1cc2c(C(=O)N3CCC(c4cccc(CN)c4)CC3)cccc2s1)c1cc2c(C(=O)N3CCC(c4cccc(CN)c4)CC3)cccc2s1 [Target T49] | 0.1 to 1000 nM
11 | C[Si](C)(O)c1csc2ccc(C(=O)N3CCC(c4cccc(CN)c4)CC3)cc12 [Target T149] | 1000 to 10000 nM
12 | CSc1cc(C(=O)N2CCC(c3cccc(CN)c3)CC2)cc([Si](C)(C)O)c1 [Target T129Smethyl] | 0.1 to 1000 nM
13 | C[Si](C)(O)c1cccc(-c2cccc(C(=O)N3CCC(c4cccc(CN)c4)CC3)c2)c1 [T35 Silyl] | 10000 to 65000 nM
14 | C[Si](C)(O[Si](C)(C)c1cccc2sc(C(=O)N3CCC(c4cccc(CN)c4)CC3)cc12)c1cccc2sc(C(=O)N3CCC(c4cccc(CN)c4)CC3)cc12 [Target T46] | 0.1 to 1000 nM
15 | Cn1cc(C(=O)N2CCC(c3cccc(CN)c3)CC2)c2ccc([Si](C)(C)O)cc21 [Target T152NMethyl] | 10000 to 65000 nM
16 | C[Si](C)(O)c1ccc(C(=O)N2CCC(c3cccc(CN)c3)CC2)cc1 [Target T130] | 0.1 to 1000 nM
17 | C[Si](C)(O)c1cccc2[nH]c(C(=O)N3CCC(c4cccc(CN)c4)CC3)cc12 [Target T32Silyl] | 10000 to 65000 nM
18 | C[Si](C)(/C=C/c1cccc(CC(=O)N2CCC(c3cccc(CN)c3)CC2)c1)O[Si](C)(C)/C=C/c1cccc(CC(=O)N2CCC(c3cccc(CN)c3)CC2)c1 [Target T47vinyl] | 1000 to 10000 nM
19 | C[Si](C)(O)COc1cccc(C(=O)N2CCC(c3cccc(CN)c3)CC2)c1 [Target T138, (4-(3-(aminomethyl)phenyl)-piperidin-1-yl)(3-((hydroxydimethylsilyl)-methoxy)phenyl)methanone] | 0.1 to 1000 nM
20 | C[Si](C)(O)c1cccc2ccc(C(=O)N3CCC4(CC3)COc3ccc(CN)cc34)cc12 [Target T52SPIRO] | 0.1 to 1000 nM
21 | C[Si](C)(O)c1cccc(C(=O)N2CCC(c3cccc(CN)c3)CC2)c1 [Target T129] | 0.1 to 1000 nM
22 | C[Si](C)(O[Si](C)(C)c1ccc(CC(=O)N2CCC(c3cccc(CN)c3)CC2)cc1)c1ccc(CC(=O)N2CCC(c3cccc(CN)c3)CC2)cc1 [Target T48] | 1000 to 10000 nM

Test system: not listed separately
Experiment: Hydrolysis of disiloxane to silanol followed by NMR
Format: physicochemical
Settings: expected from the effect of alkyl group size on silyl ether hydrolysis
Excerpt: Without wishing to be bound by any theory, the estimated half-life for hydrolysis of the disiloxane depicted here:
[drawing 18] is 15 days based at pH5 in 90% DMSO/10% water at room temperature based upon NMR experiments. […] Thus in certain aqueous situations, the hydrolysis of the dimeric disiloxane to monomeric silanol may be essentially irreversible on the timescale relevant for the biological functions they are modulating.

Row | Structure (SMILES) | half-life of hydrolysis relative to the depicted disiloxane
23 | CC[Si](CC)(O[Si](CC)(CC)c1ccccc1)c1ccccc1 [diphenyltetraethyldisiloxane] | more than ten fold longer
